Test results from patent US7084268B1, “Carbapenem compound crystals and interjection preparations” (Eisai Co., Ltd., priority 1999, dated 2006).
Counter-ions that a name gives are not always drawn.

Assay: Solubility in 62.5% (v/v) aqueous organic solvents, quantification in HPLC
Assay type: physicochemical
Conditions: for solubility at 30 min: aqueous organic solvent, 20 °C, aqueous with cosolvent or surfactant or cyclodextrin, thermodynamic from solid
Experimental: The solubility of (+)-(1R,5S,6S)-6-[(R)-1-hydroxyethyl]-1-methyl-2-[(2S,4S)-2-[(3R)-pyrrolidine-3-yl-(R)-hydroxymethyl]pyrrolidine-4-yl]thio-1-carbapen-2-em-3-carboxylic acid monohydrochloride monohydrate and trihydrate in various aqueous organic solvents at a concentration of 62.5% (v/v) in water at 20° C. was determined by HPLC in the following manner.

- solubility (62.5% (v/v) diethylene glycol monoethyl ether in water, 20° C., 30 minutes, monohydrochloride monohydrate): 6560 µg/mL
- solubility at 30 min (62.5% (v/v) 1-ethoxy-2-propanol in water): 5060 µg/mL
- solubility at 30 min (62.5% (v/v) 1-methoxy-2-propanol in water): 4120 µg/mL
- solubility at 30 min (62.5% (v/v) 2-ethoxyethanol in water): 6740 µg/mL
- solubility at 30 min (62.5% (v/v) 2-isopropoxyethanol in water): 6030 µg/mL
- solubility at 30 min (62.5% (v/v) 2-methoxyethanol in water): 5370 µg/mL
- solubility at 30 min (62.5% (v/v) 3-methoxy-3-methyl-1-butanol in water): 5930 µg/mL
- solubility at 30 min (62.5% (v/v) 3-methoxybutanol in water): 4390 µg/mL
- solubility at 30 min (62.5% (v/v) IPA (isopropyl alcohol) in water): 6310 µg/mL
- solubility at 30 min (62.5% (v/v) acetonitrile in water): 15800 µg/mL
- solubility at 30 min (62.5% (v/v) diethylene glycol monomethyl ether in water): 3930 µg/mL
- solubility at 30 min (62.5% (v/v) dimethyl acetamide in water): 4060 µg/mL
- solubility at 30 min (62.5% (v/v) dimethyl ether in water): 1930 µg/mL
- solubility at 30 min (62.5% (v/v) dimethyl formamide in water): 5030 µg/mL
- solubility at 30 min (62.5% (v/v) dimethyl sulfoxide in water): 7500 µg/mL
- solubility at 30 min (62.5% (v/v) ethanol in water): 6600 µg/mL
- solubility at 30 min (62.5% (v/v) methanol in water): 10200 µg/mL
- solubility at 30 min (62.5% (v/v) n-propanol in water): 12300 µg/mL
- solubility at 30 min (62.5% (v/v) t-butanol in water): 8650 µg/mL
- solubility at 30 min (62.5% (v/v) tetrahydrofuran in water): 7220 µg/mL
- solubility at 30 min (62.5% (v/v) triethylene glycol monomethyl ether in water): 2860 µg/mL
SMILES: C[C@@H](O)[C@H]1C(=O)N2C(C(=O)O)=C(S[C@@H]3CN[C@H]([C@H](O)[C@@H]4CCNC4)C3)[C@H](C)[C@H]12 [monohydrate, (+)-(1R,5S,6S)-6-[(R)-1-Hydroxyethyl]-1-methyl-2-[(2S,4S)-2-[(3R)-pyrrolidine-3-yl-(R)-hydroxymethyl]pyrrolidine-4-yl]thio-1-carbapen-2-em-3-carboxylic acid monohydrochloride monohydrate]
- solubility at 30 min (62.5% (v/v) 1-acetoxy-2-methyl ethane in water): 4180 µg/mL
- solubility at 30 min (62.5% (v/v) 2-butoxyethanol in water): 13300 µg/mL
